Measured values from the NIST ThermoML archive (doi:10.1021/je4000394).

Legend:
[1] = xn = mol fraction of the nth substance listed; conditions: Liquid; for mass density: Vibrating tube method; for viscosity: 325.2 K, Flow viscometer
[2] = Liquid, Vibrating tube method

CCCCCCCCCC [decane] + CCCCCCCCCCCCCCCCCC
[1], 323.2 K, x1 = 1
Conditions	mass density [kg/m3]
100 kPa	707
1000 kPa	707.9
2000 kPa	708.8
3000 kPa	709.7
4000 kPa	710.6
5000 kPa	711.5
6000 kPa	712.4
7000 kPa	713.3
8000 kPa	714.1
9000 kPa	715
10000 kPa	715.9

CCCCCCCCCCCCCCCCCC [octadecane]
[2], 323 K
Conditions	mass density [kg/m3]
100 kPa	761.2
1000 kPa	761.9
2000 kPa	762.7
3000 kPa	763.3
4000 kPa	764
5000 kPa	764.8
6000 kPa	765.4
7000 kPa	766
8000 kPa	766.7
9000 kPa	767.5
10000 kPa	768.1

CCCCCCCCCC [decane]
[2], 323.2 K
Conditions	mass density [kg/m3]
100 kPa	707
1000 kPa	707.9
2000 kPa	708.8
3000 kPa	709.7
4000 kPa	710.6
5000 kPa	711.5
6000 kPa	712.4
7000 kPa	713.3
8000 kPa	714.1
9000 kPa	715
10000 kPa	715.9

CCCCCCCCCCCCCCCCCC [octadecane] + CCCCCCCCCC
mass density [kg/m3], [1]
Conditions	x2 = 0	x2 = 0.25	x2 = 0.5	x2 = 0.75
323 K, 100 kPa	761.2	–	–	726.3
323 K, 1000 kPa	761.9	–	–	727.1
323 K, 2000 kPa	762.7	–	–	728
323 K, 3000 kPa	763.3	–	–	728.8
323 K, 4000 kPa	764	–	–	729.6
323 K, 5000 kPa	764.8	–	–	730.4
323 K, 6000 kPa	765.4	–	–	731.2
323 K, 7000 kPa	766	–	–	732.1
323 K, 8000 kPa	766.7	–	–	732.9
323 K, 9000 kPa	767.5	–	–	733.7
323 K, 10000 kPa	768.1	–	–	734.5
323.1 K, 100 kPa	–	752.2	740.8	–
323.1 K, 1000 kPa	–	752.9	741.6	–
323.1 K, 2000 kPa	–	753.7	742.4	–
323.1 K, 3000 kPa	–	754.5	743.1	–
323.1 K, 4000 kPa	–	755.2	743.9	–
323.1 K, 5000 kPa	–	755.9	744.7	–
323.1 K, 6000 kPa	–	756.7	745.5	–
323.1 K, 7000 kPa	–	757.3	746.2	–
323.1 K, 8000 kPa	–	758.1	747	–
323.1 K, 9000 kPa	–	758.8	747.8	–
323.1 K, 10000 kPa	–	759.6	748.6	–

[1], 100 kPa
Conditions	viscosity [mPa·s]
x1 = 0.25	0.883
x1 = 0.5	1.31
x1 = 0.75	1.702
